Test results as given in patent US4713367A, “Retro-inverso analogs of the bradykinin potentiating peptide BPP5a” (Enichem S.p.A., priority 1986, dated 1987).
*1 amine or outer side, *2 acyl side, *3 side chain or, on linkers, in order; H or OH if unused. Where a SMILES comes first, the peptide text is derived from it. [ ]: non-standard residue; d: D form. X1 = O=C([C@@H]1C[C@H](Sc2ccccc2)CN1[*:1])[*:2]; pGlu = O=C1CC[C@@H](C(=O)O)N1

What was measured:
[1] = tested on: angiotensin converting enzyme; test: Degradation in vitro by the angiotensin converting enzyme; assay type: in vitro ADME; conditions: in the presence of the angiotensin converting enzyme
[2] = target: T1, angiotensin converting enzyme (Oryctolagus cuniculus, UniProt P12822); test: Inhibition of the angiotensin converting enzyme (IC50); assay type: biochemical, rabbit; conditions: for IC50: enzyme isolated from rabbit lungs (Cushman and Cheung)
T1 construct: The enzyme employed in this test has been isolated from rabbit lungs; from tissue; host or cells: rabbit lungs
T1 sequence (P12822 34-1310): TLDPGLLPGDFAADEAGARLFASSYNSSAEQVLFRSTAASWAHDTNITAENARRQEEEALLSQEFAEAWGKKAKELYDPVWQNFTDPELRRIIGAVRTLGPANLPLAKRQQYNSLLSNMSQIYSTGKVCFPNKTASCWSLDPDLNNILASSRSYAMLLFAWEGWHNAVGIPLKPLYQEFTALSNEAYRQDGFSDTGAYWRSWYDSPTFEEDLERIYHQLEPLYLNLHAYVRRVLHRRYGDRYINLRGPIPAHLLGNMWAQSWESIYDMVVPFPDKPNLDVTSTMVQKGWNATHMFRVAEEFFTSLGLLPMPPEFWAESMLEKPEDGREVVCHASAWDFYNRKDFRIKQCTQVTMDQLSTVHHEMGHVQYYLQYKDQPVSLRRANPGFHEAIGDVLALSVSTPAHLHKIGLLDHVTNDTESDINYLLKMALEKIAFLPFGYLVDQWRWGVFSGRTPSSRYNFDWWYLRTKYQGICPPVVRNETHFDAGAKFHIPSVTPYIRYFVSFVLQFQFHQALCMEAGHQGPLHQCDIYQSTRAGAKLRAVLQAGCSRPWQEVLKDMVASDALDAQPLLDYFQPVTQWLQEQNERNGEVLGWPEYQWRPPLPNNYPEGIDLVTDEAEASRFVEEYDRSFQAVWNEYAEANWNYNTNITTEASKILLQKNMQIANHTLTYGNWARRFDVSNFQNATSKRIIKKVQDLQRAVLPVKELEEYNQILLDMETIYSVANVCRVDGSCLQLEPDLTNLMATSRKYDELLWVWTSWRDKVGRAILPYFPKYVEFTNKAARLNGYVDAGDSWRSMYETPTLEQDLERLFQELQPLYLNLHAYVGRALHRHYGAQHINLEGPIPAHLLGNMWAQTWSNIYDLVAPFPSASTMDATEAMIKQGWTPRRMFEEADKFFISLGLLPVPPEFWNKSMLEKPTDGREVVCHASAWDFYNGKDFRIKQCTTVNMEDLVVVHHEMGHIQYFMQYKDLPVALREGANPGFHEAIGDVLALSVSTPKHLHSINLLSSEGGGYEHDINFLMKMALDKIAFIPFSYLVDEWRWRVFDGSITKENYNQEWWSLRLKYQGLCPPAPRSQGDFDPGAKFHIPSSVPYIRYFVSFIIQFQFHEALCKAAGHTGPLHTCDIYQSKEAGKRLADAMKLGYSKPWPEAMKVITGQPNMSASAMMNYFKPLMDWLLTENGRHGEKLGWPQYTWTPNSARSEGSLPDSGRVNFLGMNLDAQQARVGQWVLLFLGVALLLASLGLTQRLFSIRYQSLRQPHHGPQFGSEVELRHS
Text: In particular, comparative experiments carried out […] in order to evaluate the ACE inhibitory activity of the compounds of the present invention gave the results reported in following table I (IC50 represents the concentration of the test compound, in μM, which inhibits the angiotensin converting enzyme by 50%. The enzyme employed in this test has been isolated from rabbit lungs according to the method by Cushman and Cheung described in Biochem. Pharmacol. 20, 1637, (1971)).

bradykinin = bradykinin injected directly into the coronary arteries; cited from earlier work
[3] = induced experimentally in rats; cited from earlier work
[4] = tested on: angiotensin converting enzyme; conditions: 15 minutes of preincubation; cited from earlier work
angiotensin I = conditions: infused directly into the brain; cited from earlier work
[5] = Hypotensive effect in anesthetized normotensive rats; assay type: in vivo, rat; conditions: injected intravenously at 0.18 mg/Kg
Description: In vivo experiments carried out in anesthetized normotensive rats confirmed a hypotensive effect of the compounds of the invention as compound (a), when injected intravenously at a dosage of 0.18 mg/Kg, produced a blood pressure decrease of about 20 mmHg.

Structure (SMILES) | degradation by / resistance towards cleavage by ACE [1] | IC50 [2] | other results
C[C@H](C(=O)N[C@H](Cc1ccccc1)NC(=O)[C@H](CCCCN)NC(=O)[C@@H]1CCC(=O)N1)C(=O)N1C[C@@H](Sc2ccccc2)C[C@H]1C(=O)O [(b), Glp--Lys--gPhe--(R)mAla--Pro(S--Ph)--OH] | complete resistance |  | 
C[C@H](NC(=O)[C@H](Cc1ccccc1)NC(=O)[C@H](CCCCN)NC(=O)[C@@H]1CCC(=O)N1)C(=O)N1CCC[C@H]1C(=O)O [(c), Glp--Lys--Phe--Ala--Pro--OH] ([pGlu]KFAP-OH) | quickly degraded | 100 nM | 
C[C@H](NC(=O)[C@H](Cc1c[nH]c2ccccc12)NC(=O)[C@H](CCCCN)NC(=O)[C@@H]1CCC(=O)N1)C(=O)N1CCC[C@H]1C(=O)O [(d), Glp--Lys--Trp--Ala--Pro--OH] ([pGlu]KWAP-OH) | quickly degraded | 100 nM | in vivo activity of bradykinin (bradykinin): potentiates; control of reno-vascular hypertension [3]: capable of controlling; inhibitory activity after preincubation with the angiotensin converting enzyme [4]: complete loss of inhibitory activity; CNS-mediated hypertensive and tachycardic action of angiotensin I (angiotensin I): inhibits
C[C@H](NC(=O)[C@H](Cc1ccccc1)NC(=O)[C@H](CCCCN)NC(=O)[C@@H]1CCC(=O)N1)C(=O)N1C[C@@H](Sc2ccccc2)C[C@H]1C(=O)O [(e), Glp--Lys--Phe--Ala--Pro(S--Ph)--OH] ([pGlu]KFA[X1]-OH) | quickly degraded | 60 nM | 
C[C@@H](C(=O)N[C@H](Cc1ccccc1)NC(=O)[C@H](CCCCN)NC(=O)[C@@H]1CCC(=O)N1)C(=O)N1CCC[C@H]1C(=O)O [(f), Glp--Lys--gPhe--(S)mAla--Pro--OH] | complete resistance |  | 
C[C@H](C(=O)N[C@H](Cc1ccccc1)NC(=O)[C@H](CCCCN)NC(=O)[C@@H]1CCC(=O)N1)C(=O)N1CCC[C@H]1C(=O)O [(g), Glp--Lys--gPhe--(R)mAla--Pro--OH] | complete resistance |  | 
CC(C(=O)N[C@H](Cc1ccccc1)NC(=O)[C@H](CCCCN)NC(=O)[C@@H]1CCC(=O)N1)C(=O)N1CCC[C@H]1C(=O)O (stereo partly drawn) [Glp-Lys-gPhe-mAla-Pro-OH] |  |  | IC50 relative to that of the natural product (BPP5a) or the uninverted peptide Glp-Lys-Phe-Ala-Pro-OH ([2]; in vitro): more than 1000 times higher
C[C@@H](C(=O)N[C@H](Cc1ccccc1)NC(=O)[C@H](CCCCN)NC(=O)[C@@H]1CCC(=O)N1)C(=O)N1C[C@@H](Sc2ccccc2)C[C@H]1C(=O)O [compound (a), Glp--Lys--gPhe--(S)mAla--Pro(S--Ph)--OH] | complete resistance |  | blood pressure decrease [5]: about 20 mmHg
